# Test results as given in article PMC7249037, “Phenylpyrazalopyrimidines as Tyrosine Kinase Inhibitors: Synthesis, Antiproliferative Activity, and Molecular Simulations” (Molecules, 2020).
# Where “and” joins values, the source holds several entries; their conditions need not be identical. Equal values may be shown once.
# Legend:
# [1] = molecular target: T1, c-Src (Homo sapiens, UniProt P12931); test: c-Src kinase activity assay (Transcreener ADP fluorescence intensity); format: biochemical; design: 0.7 nM of His6-Src kinase domain in kinase buffer; His6; conditions: in vitro Src kinase inhibition, His6-Src kinase domain, triplicate
# Description: In summary, the kinase reaction was started in the 384-well low volume black microplate with the incubation of 2.5 μL of the reaction cocktail (0.7 nM of His6-Src kinase domain in kinase buffer) with 2.5 μL of prediluted compounds (dissolved in 10% DMSO, 4× target concentration) for 10 min at room temperature using microplate shaker. The reaction cocktail was made using the kinase buffer HEPES (200 mM, pH 7.5), MgCl2 (16 mM), EGTA (8 mM), DMSO (4%), Brij-35 (0.04%), and 2-mercaptoethanol (43 mM). The kinase reaction was started by adding 5 μL of ATP/substrate (40 μM/600 μM) cocktail and incubated for 30 min at room temperature on a microplate shaker. Src optimal peptide ([…]) was used as the substrate for the kinase reaction. The kinase reaction was stopped by adding 10 μL of the 1× ADP Detection Mixture to the enzyme reaction mixture and mixed using a plate shaker. The mixture was incubated at room temperature for 1 h, and the fluorescence intensity was measured. The 1× ADP Detection Mixture was prepared by adding ADP^2 Antibody-IRDyeR QC-1 (10 μg/mL) and ADP Alexa594 Tracer (8 nM) to Stop and Detect Buffer B(1×). The fluorescence Intensity measurements were performed using a fluorescence intensity optical module using the excitation of 580 nm and emission of 630 nm with bandwidths of 10 nm by Optima, BMG Labtech microplate reader (BMG Labtech, Ortenberg, Germany). The IC50 values of the compounds were calculated using ORIGIN 6.0 (Origin Lab, Microcal Software, Inc. Northhampton, MA, USA) software. […] All the experiments were carried out in triplicate.
# Target sequence in this assay (P12931 270-523 limits assumed): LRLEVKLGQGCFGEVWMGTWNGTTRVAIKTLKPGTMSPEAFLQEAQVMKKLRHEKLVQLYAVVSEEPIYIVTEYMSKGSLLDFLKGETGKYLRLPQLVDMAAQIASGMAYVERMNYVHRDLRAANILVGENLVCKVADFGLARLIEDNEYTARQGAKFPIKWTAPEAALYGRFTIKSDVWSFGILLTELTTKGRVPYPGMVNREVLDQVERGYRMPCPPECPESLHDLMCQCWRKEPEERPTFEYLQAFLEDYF
# [2] = test system: HT-29 cells; test: Cell proliferation assay (CellTiter 96); format: cell-based, human; conditions: for reducing the cell proliferation (in words): 24–96 h
# Description: (§1) Human leukemia cell line CCRF-CEM (ATCC no. CCL-119), human ovarian adenocarcinoma cell line SK-OV-3 (ATCC no. HTB-77), human breast carcinoma cell line MDA-MB-231 (ATCC no.HTB-26), and human colon adenocarcinoma cell line HT-29 (ATCC no. HTB-38) were obtained from American Type Culture Collection. Cells were grown on 75 cm^2 cell culture flasks with […] (for leukemia cells) and EMEM (Eagle’s minimum essential medium) (for SK-OV-3, HT-29, MDA-MB-231 cells), supplemented with 10% fetal bovine serum (FBS), and 1% penicillin-streptomycin solution (10,000 units of penicillin and 10 mg of streptomycin in 0.9% NaCl) in a humidified atmosphere of 5% CO2, 95% air at 37 °C.
# (§2) The cell proliferation assay was carried out using a CellTiter 96 aqueous one-solution cell proliferation assay kit (Promega, Madison, WI, USA). Briefly, upon reaching about 75–80% confluence, 5000 cells/well were plated in 96-well microplate in 100 μL of the medium. After seeding for 24 h, the cells were treated with 50 µM compound in triplicate. Doxorubicin (10 µM) was used as a positive control. At the end of the sample exposure period (72 h), 20 µL of CellTiter 96 aqueous solution was added. The plate was returned to the incubator for 1 h in a humidified atmosphere at 37 °C. The absorbance of the formazan product was measured at 490 nm using a microplate reader. The blank control was recorded by measuring the absorbance at 490 nm with wells containing medium mixed with CellTiter 96 aqueous solution but no cells. The percentage of cell survival was calculated as the OD value of cells treated with test compound − OD value of culture medium/(OD value of control cells − OD value of culture medium) × 100%. The same strategy was used for generating a dose-response graph for compound 10.
# [3] = test system: SK-OV-3 cells; test: Cell proliferation assay (CellTiter 96); format: cell-based, human; conditions: for reducing the cell proliferation (in words): 24–96 h; for IC50: SK-OV-3 cells, 72 h incubation
# Description: as §1, §2
# [4] = test system: CCRF-CEM cells; test: Cell proliferation assay (CellTiter 96); format: cell-based, human; conditions: for reducing the cell proliferation (in words): 24–96 h
# Description: as §1
# as §2, with “At the end of the sample exposure period (72 h), 20 µL of CellTiter 96 aqueous solution was added.” left out
# [5] = test system: MDA-MB-231 cells; test: Cell proliferation assay (CellTiter 96); format: cell-based, human; conditions: for reducing the cell proliferation (in words): 24–96 h
# Description: as §1
# as §2, with “At the end of the sample exposure period (72 h), 20 µL of CellTiter 96 aqueous solution was added.” left out
# [6] = molecular target: T2, Akt1 (Homo sapiens, UniProt P31749); test: Kinase panel, radiometric filter-binding (Reaction Biology); format: biochemical; conditions: 200 µM ATP, NA = not active, values above 1 µM estimated from curve fit
# T2 construct: purchased Invitrogen (assay run by Reaction Biology Corporation) PR3878D
# Description: Required cofactors were added individually to each kinase reaction. […] The serial dilution was conducted by Integra Viaflo Assist in DMSO.
# [7] = molecular target: T3, Lck (Homo sapiens, UniProt P06239); test: as above; format: biochemical; conditions: 200 µM ATP, values above 1 µM estimated from curve fit
# T3 construct: purchased Invitrogen (assay run by Reaction Biology Corporation) P3043
# [8] = molecular target: T4, Btk (Homo sapiens, UniProt Q06187); test: as above; format: biochemical; conditions: 200 µM ATP, values above 1 µM estimated from curve fit
# T4 construct: purchased Invitrogen (assay run by Reaction Biology Corporation) PV3363
# [9] = molecular target: T1, c-Src; test: as above; format: biochemical; design: purchased Invitrogen (assay run by Reaction Biology Corporation) P3044; conditions: 200 µM ATP, values above 1 µM estimated from curve fit
# Target sequence in this assay (P12931 whole entry, the tested form may be a part): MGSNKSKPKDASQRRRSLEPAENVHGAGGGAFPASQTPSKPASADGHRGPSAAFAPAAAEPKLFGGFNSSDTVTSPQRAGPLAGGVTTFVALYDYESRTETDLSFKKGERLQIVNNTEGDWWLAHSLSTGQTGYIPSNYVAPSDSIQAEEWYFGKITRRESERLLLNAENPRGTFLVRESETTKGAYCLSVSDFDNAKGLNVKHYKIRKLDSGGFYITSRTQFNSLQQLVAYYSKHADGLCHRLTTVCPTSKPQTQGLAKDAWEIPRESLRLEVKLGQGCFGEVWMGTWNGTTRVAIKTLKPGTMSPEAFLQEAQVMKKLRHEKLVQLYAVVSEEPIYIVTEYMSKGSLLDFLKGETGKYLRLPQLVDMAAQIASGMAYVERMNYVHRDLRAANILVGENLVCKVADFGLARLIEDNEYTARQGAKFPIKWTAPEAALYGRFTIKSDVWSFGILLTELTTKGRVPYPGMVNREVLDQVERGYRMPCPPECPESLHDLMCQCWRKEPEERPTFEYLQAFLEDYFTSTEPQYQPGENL
# T4 sequence (Q06187 whole entry): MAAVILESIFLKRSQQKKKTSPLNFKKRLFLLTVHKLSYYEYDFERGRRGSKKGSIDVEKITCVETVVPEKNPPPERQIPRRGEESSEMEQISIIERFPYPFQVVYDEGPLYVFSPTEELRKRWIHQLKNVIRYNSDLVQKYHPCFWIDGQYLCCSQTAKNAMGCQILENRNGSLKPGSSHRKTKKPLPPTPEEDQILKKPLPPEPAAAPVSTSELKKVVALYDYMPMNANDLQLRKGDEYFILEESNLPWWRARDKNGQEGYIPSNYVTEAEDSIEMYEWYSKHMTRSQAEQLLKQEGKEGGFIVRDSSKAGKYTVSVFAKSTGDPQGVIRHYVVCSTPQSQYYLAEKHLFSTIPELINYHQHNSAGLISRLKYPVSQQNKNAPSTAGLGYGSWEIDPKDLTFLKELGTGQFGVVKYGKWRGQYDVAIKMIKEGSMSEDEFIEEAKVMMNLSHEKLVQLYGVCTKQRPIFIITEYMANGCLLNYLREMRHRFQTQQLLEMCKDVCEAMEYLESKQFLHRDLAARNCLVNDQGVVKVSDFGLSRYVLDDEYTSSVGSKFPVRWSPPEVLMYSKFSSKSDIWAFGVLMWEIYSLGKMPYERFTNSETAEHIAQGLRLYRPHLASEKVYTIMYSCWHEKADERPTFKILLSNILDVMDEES
# T3 sequence (P06239 whole entry): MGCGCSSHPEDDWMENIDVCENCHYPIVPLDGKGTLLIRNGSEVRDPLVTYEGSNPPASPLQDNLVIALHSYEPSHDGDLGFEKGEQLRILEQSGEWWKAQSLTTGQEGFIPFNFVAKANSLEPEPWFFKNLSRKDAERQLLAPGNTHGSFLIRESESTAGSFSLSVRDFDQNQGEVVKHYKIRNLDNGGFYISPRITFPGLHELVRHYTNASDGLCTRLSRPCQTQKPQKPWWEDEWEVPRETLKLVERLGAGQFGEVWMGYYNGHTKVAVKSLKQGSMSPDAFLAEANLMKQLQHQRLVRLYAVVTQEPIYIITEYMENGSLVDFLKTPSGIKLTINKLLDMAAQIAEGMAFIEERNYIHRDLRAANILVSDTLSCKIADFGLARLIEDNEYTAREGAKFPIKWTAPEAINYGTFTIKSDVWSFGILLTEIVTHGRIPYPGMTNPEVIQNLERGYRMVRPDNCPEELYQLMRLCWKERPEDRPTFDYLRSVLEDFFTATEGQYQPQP
# T2 sequence (P31749 whole entry): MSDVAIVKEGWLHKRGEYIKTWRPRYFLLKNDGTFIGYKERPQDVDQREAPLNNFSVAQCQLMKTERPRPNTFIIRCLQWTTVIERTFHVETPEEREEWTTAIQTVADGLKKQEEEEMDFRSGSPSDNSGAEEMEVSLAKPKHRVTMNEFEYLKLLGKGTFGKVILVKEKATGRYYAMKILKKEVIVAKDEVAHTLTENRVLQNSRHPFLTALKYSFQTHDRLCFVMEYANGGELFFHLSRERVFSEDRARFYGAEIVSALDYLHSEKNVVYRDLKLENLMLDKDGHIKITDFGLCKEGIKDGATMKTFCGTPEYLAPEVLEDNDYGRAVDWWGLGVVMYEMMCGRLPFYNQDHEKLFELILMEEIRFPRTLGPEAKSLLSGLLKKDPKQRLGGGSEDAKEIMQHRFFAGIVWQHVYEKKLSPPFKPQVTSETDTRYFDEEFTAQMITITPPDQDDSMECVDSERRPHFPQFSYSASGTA
IC50 [1] [µM],Structure (SMILES),"reducing the cell proliferation (in words) ([2]; HT-29, 50 µM)","reducing the cell proliferation (in words) ([3]; SK-OV-3, 50 µM)",reducing the cell proliferation (in words) ([4]; 50 µM),"reducing the cell proliferation (in words) ([5]; MDA-MB-231, 50 µM)",further results
32.9,"CC(=O)C(=Cc1ccc(C)cc1)n1nc(-c2ccccc2)c2c(N)ncnc21 [Compound 3, 3-(4-Amino-3-phenyl-1H-pyrazolo[3,4-d]pyrimidin-1-yl)-4-p-tolylbut-3-en-2-one]",,,,,
,"CC(=O)Cn1nc(-c2ccccc2)c2c(N)ncnc21 [Compound 2, 1-(4-Amino-3-phenyl-1H-pyrazolo[3,4-d]pyrimidin-1-yl)propan-2-one]",inactive,inactive,inactive,inactive,
,"COc1cccc2c1C(=O)c1c(O)c3c(c(O)c1C2=O)C[C@@](O)(C(=O)CO)C[C@@H]3O[C@H]1C[C@H](N)[C@H](O)[C@H](C)O1 [Dox, Doxorubicin, reference compound]",,,,,"inhibition at 1 µM ([2]; Homo sapiens, HT-29, Dox positive control (1 µM in Figure 3, 10 µM in method), 96 h): 75%; inhibition at 1 µM ([3]; Homo sapiens, SK-OV-3, Dox positive control (1 µM in Figure 3, 10 µM in method), 96 h): 73%; inhibition at 1 µM ([4]; Homo sapiens, Dox positive control (1 µM in Figure 3, 10 µM in method), 96 h): 73%; inhibition at 1 µM ([5]; Homo sapiens, MDA-MB-231, Dox positive control (1 µM in Figure 3, 10 µM in method), 96 h): 64%"
,"CC(=O)C(=Cc1ccc(Cl)cc1)n1nc(-c2ccccc2)c2c(N)ncnc21 [Compound 10, 3-(4-Amino-3-phenyl-1H-pyrazolo[3,4-d]pyrimidin-1-yl)-4-(4-chlorophenyl)but-3-en-2-one]",,,,,"inhibition at 50 µM ([2]; Homo sapiens, HT-29, 50 µM, 96 h): 90%; inhibition at 50 µM ([3]; Homo sapiens, SK-OV-3, 50 µM, 96 h): 79%; IC50 ([3]; Homo sapiens): 25.5 µM; IC50 [6]: > 150 µM; inhibition at 50 µM ([4]; Homo sapiens, 50 µM, 96 h): 79%; inhibition at 50 µM ([5]; Homo sapiens, MDA-MB-231, 50 µM, 96 h): 60%; IC50 [7]: 110 µM; IC50 [8]: 90.5 µM and 95.4 µM; IC50 [9]: 60.4 µM and 64.1 µM"
24.7,"CC(=O)C(=Cc1cccc(C)c1)n1nc(-c2ccccc2)c2c(N)ncnc21 [Compound 4, 3-(4-Amino-3-phenyl-1H-pyrazolo[3,4-d]pyrimidin-1-yl)-4-m-tolylbut-3-en-2-one]",,,,,
,"CC(=O)C(=Cc1cccc([N+](=O)[O-])c1)n1nc(-c2ccccc2)c2c(N)ncnc21 [Compound 9, 3-(4-Amino-3-phenyl-1H-pyrazolo[3,4-d]pyrimidin-1-yl)-4-(3-nitrophenyl)but-3-en-2-one]",inactive,inactive,inactive,inactive,
,"CC(=O)C(=Cc1ccc(Cl)cc1Cl)n1nc(-c2ccccc2)c2c(N)ncnc21 [Compound 11, 3-(4-Amino-3-phenyl-1H-pyrazolo[3,4-d]pyrimidin-1-yl)-4-(2,4-dichlorophenyl)but-3-en-2-one]",,,,,IC50 ([3]; Homo sapiens): 34.3 µM
192,"CC(=O)/C(=C\c1ccc(-c2ccccc2)cc1)n1nc(-c2ccccc2)c2c(N)ncnc21 [Compound 5, 3-(4-Amino-3-phenyl-1H-pyrazolo[3,4-d]pyrimidin-1-yl)-4-p-biphenylbut-3-en-2-one]",,,,,
,"CC(=O)C(=Cc1ccccc1Cl)n1nc(-c2ccccc2)c2c(N)ncnc21 [Compound 12, 3-(4-Amino-3-phenyl-1H-pyrazolo[3,4-d]pyrimidin-1-yl)-4-(2-chlorophenyl)but-3-en-2-one]",inactive,inactive,inactive,inactive,
21.7,"COc1ccc(C=C(C(C)=O)n2nc(-c3ccccc3)c3c(N)ncnc32)cc1 [Compound 6, 3-(4-Amino-3-phenyl-1H-pyrazolo[3,4-d]pyrimidin-1-yl)-4-(4-methoxyphenyl)but-3-en-2-one]",,,,,
36.9,"CC(=O)C(=Cc1ccc(N(C)C)cc1)n1nc(-c2ccccc2)c2c(N)ncnc21 [Compound 7, 3-(4-Amino-3-phenyl-1H-pyrazolo[3,4-d]pyrimidin-1-yl)-4-(4-(dimethylamino)phenyl)but-3-en-2-one]",inactive,inactive,inactive,inactive,
